Experimental data as given in patent US20200255411A1, “ISOINDOLINE DERIVATIVES” (VIIV HEALTHCARE UK LIMITED, priority 2015, published 2020).

Tested on: HIV in the HTLV-1 transformed cell line MT-4
Assay: MT4 assay (antiviral HIV activity)
Format: cell-based
Conditions: MT-4 cells, readout at 96 hours with cell titer glo, 10 point dose response
Experimental: Antiviral HIV activity and cytotoxicity values for compounds of the invention from Table 1 were measured in parallel in the HTLV-1 transformed cell line MT-4 based on the method previously described (Hazen et al., 2007, In vitro antiviral activity of the novel, tyrosyl-based human immunodeficiency virus (HIV) type 1 protease inhibitor brecanavir (GW640385) in combination with other antiretrovirals and against a panel of protease inhibitor-resistant HIV (Hazen et al., “In vitro antiviral activity of the novel, tyrosyl-based human immunodeficiency virus (HIV) type 1 protease inhibitor brecanavir (GW640385) in combination with other antiretrovirals and against a panel of protease inhibitor-resistant HIV”, Antimicrob. Agents Chemother. 2007, 51: 3147-3154; and Pauwels et al., “Sensitive and rapid assay on MT-4 cells for the detection of antiviral compounds against the AIDS virus”, J. of Virological Methods 1987, 16: 171-185).
Luciferase activity was measured 96 hours later by adding a cell titer glo (Promega, Madison, Wis.). Percent inhibition of cell protection data was plotted relative to no compound control. Under the same condition, cytotoxicity of the compounds was determined using cell titer Glo™ (Promega, Madison, Wis.). IC50s were determined from a 10 point dose response curve using 3-4-fold serial dilution for each compound, which spans a concentration range >1000 fold. […]

Cc1c(-c2c(C)c3c(c(C)c2[C@H](OC(C)(C)C)C(=O)O)CN(C(=O)c2cccc(F)c2)[C@@H]3C)cc(F)c2c1CCCO2 (atropisomer, axis not shown; (M)) [Example 1]
IC50: 1.7 nM
